Results from ChEMBL document CHEMBL3045392, “Synthesis and fungicidal evaluation of some new anilinopyrimidine derivatives” (2013).

Assays:
Format in all cases: functional
Aspergillus niger [1] = assay: Fungicidal activity against Aspergillus niger assessed as growth inhibition at 100 ug/ml after 7 days; details: 168 h, read-out: IZ
Aspergillus niger [2] = assay: Fungicidal activity against Aspergillus niger assessed as growth inhibition at 1000 ug/ml after 7 days; details: 168 h, read-out: IZ
Aspergillus niger [3] = assay: Fungicidal activity against Aspergillus niger assessed as time required for hyphae to burst at 5 ug/ml
Aspergillus niger [4] = assay: Fungicidal activity against Aspergillus niger assessed as time required for hyphae to burst at 7.5 ug/ml
Aspergillus niger [5] = assay: Fungicidal activity against Aspergillus niger assessed as growth inhibition at 50 ug/ml after 7 days; details: 168 h, read-out: IZ
Aspergillus niger [6] = assay: Fungicidal activity against Aspergillus niger assessed as growth inhibition at 10 ug/ml after 7 days; details: 168 h, read-out: IZ
Aspergillus niger [7] = assay: Fungicidal activity against Aspergillus niger assessed as time required for hyphae to burst at 10 ug/ml
Aspergillus niger [8] = assay: Fungicidal activity against Aspergillus niger assessed as time required for hyphae to burst at 2.5 ug/ml

In the case of Cc1cc(C)nc(Nc2ccccc2)n1 [PYRIMETHANIL], the zone of inhibition at 100 µg/mL (Aspergillus niger [1]) is reported as 3.2 mm, the zone of inhibition at 1000 µg/mL (Aspergillus niger [2]) is reported as 4 mm and the Time (Aspergillus niger [3]) is reported as 21 s. The Time (Aspergillus niger [4]) was 39 s, the zone of inhibition at 50 µg/mL (Aspergillus niger [5]) was 2.9 mm and the zone of inhibition at 10 µg/mL (Aspergillus niger [6]) was 2.6 mm. For the same compound, the Time (Aspergillus niger [7]) was 56 s and the Time (Aspergillus niger [8]) was 12 s.
In the case of Cc1cc(CBr)nc(Nc2ccccc2)n1, the zone of inhibition at 100 µg/mL (Aspergillus niger [1]) is reported as 2 mm, the zone of inhibition at 1000 µg/mL (Aspergillus niger [2]) is reported as 2.2 mm and the zone of inhibition at 50 µg/mL (Aspergillus niger [5]) is reported as 1.9 mm. It also gave a zone of inhibition at 10 µg/mL (Aspergillus niger [6]) of 1.5 mm.
For Cc1nc(Nc2ccccc2)nc(C)c1Br, the zone of inhibition at 100 µg/mL (Aspergillus niger [1]) was 2.5 mm, the zone of inhibition at 1000 µg/mL (Aspergillus niger [2]) was 2.9 mm and the zone of inhibition at 50 µg/mL (Aspergillus niger [5]) was 2.1 mm. The zone of inhibition at 10 µg/mL (Aspergillus niger [6]) was 1.6 mm.
With Cc1nc(Nc2ccccc2)nc(C)c1C#N the zone of inhibition at 100 µg/mL (Aspergillus niger [1]) was 1.9 mm, the zone of inhibition at 1000 µg/mL (Aspergillus niger [2]) was 2.5 mm and the zone of inhibition at 50 µg/mL (Aspergillus niger [5]) was 1.7 mm. For the same compound, the zone of inhibition at 10 µg/mL (Aspergillus niger [6]) was 1.4 mm.
In the case of CC(=O)N(c1ccccc1)c1nc(C)cc(C)n1 [N-ACETYL PYRIMETHANIL], the zone of inhibition at 100 µg/mL (Aspergillus niger [1]) is reported as 2.7 mm, the zone of inhibition at 1000 µg/mL (Aspergillus niger [2]) is reported as 3.4 mm and the Time (Aspergillus niger [3]) is reported as 18 s. The Time (Aspergillus niger [4]) was 32 s, the zone of inhibition at 50 µg/mL (Aspergillus niger [5]) was 2.4 mm and the zone of inhibition at 10 µg/mL (Aspergillus niger [6]) was 2.1 mm. It also gave a Time (Aspergillus niger [7]) of 51 s and a Time (Aspergillus niger [8]) of 9 s.
With Cc1nc(Nc2ccccc2)nc2c1C(=N)C(C#N)CN(C(=O)c1ccccc1)C2 (configuration not stated) the zone of inhibition at 100 µg/mL (Aspergillus niger [1]) was 1.33 mm, the zone of inhibition at 1000 µg/mL (Aspergillus niger [2]) was 2.1 mm and the zone of inhibition at 50 µg/mL (Aspergillus niger [5]) was 1.02 mm. The zone of inhibition at 10 µg/mL (Aspergillus niger [6]) was 1 mm.
